Reference: patent US4122034A, “Antimicrobial compositions” (Schering Corporation, priority 1975, dated 1978)
Converted amounts (≈) assume the structure as drawn.

Columns and labels:
[1] = system: T. mentagrophytes; experiment: Effect against topical T. mentagrophytes infections in guinea pigs (Table VI); format: in vivo; design: Average Sum of lesion scores, Days 1-5 / Average Sum of lesion scores, Days 1-10: scale not given here; settings: for Average Sum of lesion scores, Days 1-5: untreated controls 14.8; for Average Sum of lesion scores, Days 1-10: untreated controls 38.2
Experimental: All the tests were carried out and (when necessary) scored under standard conditions. "MIC" means "minimum inhibitory concentration."
Effect of some 2-aminoalkyl-3-phenylindoles of the formula II
against topical T. mentagrophytes infections in guinea pigs.

[2] = system: Staphylococcus aureus; experiment: In vitro antibacterial activity, dilution in Mueller Hinton Agar (Table I); format: cell-based; settings: Mueller Hinton Agar pH 7.4
How it was run: (§1)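 Standard-condition agar dilution test, pH 7.4 medium; endpoint is MIC.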

[3] = system: Klebsiella; experiment: as above; format: cell-based
How it was run: as §1

[4] = system: Salmonella; experiment: as above; format: cell-based
How it was run: as §1

[5] = system: Proteus morganii; experiment: as above; format: cell-based; settings: Morganella morganii; strain Valz; Mueller Hinton Agar pH 7.4
How it was run: as §1

[6] = system: Pseudomonas acruginosa; experiment: as above; format: cell-based
How it was run: as §1

[7] = system: Enterococcus; experiment: as above; format: cell-based
How it was run: as §1

[8] = system: Proteus vulgaris; experiment: as above; format: cell-based; settings: strain Napol, Mueller Hinton Agar pH 7.4
How it was run: as §1

[9] = system: Proteus rettgeri; experiment: as above; format: cell-based; settings: Providencia rettgeri; 'Proteus rettgeri mirabilis' [sic]; Mueller Hinton Agar pH 7.4
How it was run: as §1

[10] = pH 7.4, strain 121, Mueller Hinton Agar pH 7.4
[11] = pH 7.4, strain 3020, Mueller Hinton Agar pH 7.4
[12] = pH 7.4, strain AD17, Mueller Hinton Agar pH 7.4
[13] = pH 7.4, strain AD22, Mueller Hinton Agar pH 7.4
[14] = pH 7.4, strain G3694, Mueller Hinton Agar pH 7.4
[15] = TYPHI, pH 7.4, B typhi, Mueller Hinton Agar pH 7.4
[16] = pH 7.4, C1 Oao, Mueller Hinton Agar pH 7.4
[17] = pH 7.4, C2 Cuban, Mueller Hinton Agar pH 7.4
[18] = pH 7.4, C2 Napc, Mueller Hinton Agar pH 7.4
[19] = pH 7.4, Salmonella ent. 1, Mueller Hinton Agar pH 7.4
[20] = pH 7.4, strain 130, Mueller Hinton Agar pH 7.4
[21] = pH 7.4, strain 138, Mueller Hinton Agar pH 7.4
[22] = pH 7.4, strain 762, Mueller Hinton Agar pH 7.4
[23] = pH 7.4, strain 8709, Mueller Hinton Agar pH 7.4
[24] = pH 7.4, strain Trav. 1, Mueller Hinton Agar pH 7.4
[25] = pH 7.4, strain 373, Mueller Hinton Agar pH 7.4
[26] = pH 7.4, strain 0928/72, Mueller Hinton Agar pH 7.4

| SMILES | Average No. of Days to become negative, Cultures ([1]; concentration 1%) | Average No. of Days to become negative, Lesion ([1]; concentration 1%) | Average Sum of lesion scores, Days 1-5 ([1]; concentration 1%) | Average Sum of lesion scores, Days 1-10 ([1]; concentration 1%) | Average No. of Days to become negative, Cultures ([1]; concentration 4%) | Average No. of Days to become negative, Lesion ([1]; concentration 4%) | Average Sum of lesion scores, Days 1-5 ([1]; concentration 4%) | Average Sum of lesion scores, Days 1-10 ([1]; concentration 4%) | MIC ([2]; 209P, pH 7.4, strain 209P) | MIC ([2]; pH 7.4, strain 59N) | MIC ([2]; pH 7.4, strain Gray) | MIC ([2]; pH 7.4, strain Wood) | MIC ([2]; pH 7.4, strain Zeigler) | MIC [3, 10] | MIC [3, 11] | MIC [3, 12] | MIC [3, 13] | MIC [3, 14] | MIC [4, 15] | MIC [4, 16] | further results |
| --- | --- | --- | --- | --- | --- | --- | --- | --- | --- | --- | --- | --- | --- | --- | --- | --- | --- | --- | --- | --- | --- |
| NCc1[nH]c2ccc(Cl)cc2c1-c1ccccc1F [A, 2-Aminomethyl-5-chloro-3-(2-fluorophenyl)indole] | 6.8 days | 9.0 days | 11.8 | 16.0 | 6.0 days | 8.8 days | 11.2 | 14.8 | 7.5 µg/mL (≈ 27.3 µM) | 3 µg/mL (≈ 10.9 µM) | 7.5 µg/mL (≈ 27.3 µM) | 3 µg/mL (≈ 10.9 µM) | 3 µg/mL (≈ 10.9 µM) | 7.5 µg/mL (≈ 27.3 µM) | 7.5 µg/mL (≈ 27.3 µM) | 7.5 µg/mL (≈ 27.3 µM) | 7.5 µg/mL (≈ 27.3 µM) | 7.5 µg/mL (≈ 27.3 µM) | 7.5 µg/mL (≈ 27.3 µM) | 7.5 µg/mL (≈ 27.3 µM) | MIC [4, 17]: 7.5 µg/mL (≈ 27.3 µM); MIC [4, 18]: 3 µg/mL (≈ 10.9 µM); MIC [4, 19]: 7.5 µg/mL (≈ 27.3 µM); MIC [5]: 17.5 µg/mL (≈ 63.7 µM); MIC [6, 20]: 17.5 µg/mL (≈ 63.7 µM); MIC [6, 21]: 17.5 µg/mL (≈ 63.7 µM); MIC [6, 22]: 17.5 µg/mL (≈ 63.7 µM); MIC [6, 23]: 17.5 µg/mL (≈ 63.7 µM); MIC [6, 24]: 17.5 µg/mL (≈ 63.7 µM); MIC [7, 25]: 7.5 µg/mL (≈ 27.3 µM); MIC [7, 26]: 7.5 µg/mL (≈ 27.3 µM); MIC [8]: 17.5 µg/mL (≈ 63.7 µM); MIC [9]: 17.5 µg/mL (≈ 63.7 µM) |
| NCc1[nH]c2ccc(Cl)cc2c1-c1c(F)cccc1F [B, 2-aminomethyl-5-chloro-3-(2,6-difluorophenyl)indole] | 9.6 days | 14.2 days | 11.6 | 20.0 | 5.0 days | 7.2 days | 9.2 | 10.0 | 7.5 µg/mL (≈ 25.6 µM) | 7.5 µg/mL (≈ 25.6 µM) | 7.5 µg/mL (≈ 25.6 µM) | 7.5 µg/mL (≈ 25.6 µM) | 7.5 µg/mL (≈ 25.6 µM) | 17.5 µg/mL (≈ 59.8 µM) | 7.5 µg/mL (≈ 25.6 µM) | 17.5 µg/mL (≈ 59.8 µM) | 7.5 µg/mL (≈ 25.6 µM) | 7.5 µg/mL (≈ 25.6 µM) | 7.5 µg/mL (≈ 25.6 µM) | 7.5 µg/mL (≈ 25.6 µM) | MIC [4, 17]: 7.5 µg/mL (≈ 25.6 µM); MIC [4, 18]: 7.5 µg/mL (≈ 25.6 µM); MIC [4, 19]: 7.5 µg/mL (≈ 25.6 µM); MIC [5]: 17.5 µg/mL (≈ 59.8 µM); MIC [6, 20]: 17.5 µg/mL (≈ 59.8 µM); MIC [6, 21]: 17.5 µg/mL (≈ 59.8 µM); MIC [6, 22]: 17.5 µg/mL (≈ 59.8 µM); MIC [6, 23]: 17.5 µg/mL (≈ 59.8 µM); MIC [6, 24]: 17.5 µg/mL (≈ 59.8 µM); MIC [7, 25]: 7.5 µg/mL (≈ 25.6 µM); MIC [7, 26]: 17.5 µg/mL (≈ 59.8 µM); MIC [8]: 17.5 µg/mL (≈ 59.8 µM); MIC [9]: 17.5 µg/mL (≈ 59.8 µM) |
| NCc1[nH]c2ccc(Cl)cc2c1-c1ccccc1 [C, 2-(1-aminomethyl)-5-chloro-3-phenylindole] | 12.4 days | 14.4 days | 13.0 | 25.0 | 5.6 days | 7.4 days | 10.0 | 11.8 | 7.5 µg/mL (≈ 29.2 µM) | 7.5 µg/mL (≈ 29.2 µM) | 7.5 µg/mL (≈ 29.2 µM) | 7.5 µg/mL (≈ 29.2 µM) | 3 µg/mL (≈ 11.7 µM) | 3 µg/mL (≈ 11.7 µM) | 3 µg/mL (≈ 11.7 µM) | 7.5 µg/mL (≈ 29.2 µM) | 3 µg/mL (≈ 11.7 µM) | 3 µg/mL (≈ 11.7 µM) | 3 µg/mL (≈ 11.7 µM) | 3 µg/mL (≈ 11.7 µM) | MIC [4, 17]: 3 µg/mL (≈ 11.7 µM); MIC [4, 18]: 3 µg/mL (≈ 11.7 µM); MIC [4, 19]: 7.5 µg/mL (≈ 29.2 µM); MIC [5]: 7.5 µg/mL (≈ 29.2 µM); MIC [6, 20]: 17.5 µg/mL (≈ 68.2 µM); MIC [6, 21]: 17.5 µg/mL (≈ 68.2 µM); MIC [6, 22]: 37.5 µg/mL (≈ 146 µM); MIC [6, 23]: 17.5 µg/mL (≈ 68.2 µM); MIC [6, 24]: 17.5 µg/mL (≈ 68.2 µM); MIC [7, 25]: 7.5 µg/mL (≈ 29.2 µM); MIC [7, 26]: 7.5 µg/mL (≈ 29.2 µM); MIC [8]: 7.5 µg/mL (≈ 29.2 µM); MIC [9]: 7.5 µg/mL (≈ 29.2 µM) |
| NCc1[nH]c2cc(Br)c(Cl)cc2c1-c1ccccc1 [D, 2-aminomethyl-6-bromo-5-chloro-3-phenylindole] | > 22 days | > 22 days | 11.6 | 29.2 | 6.2 days | 8.8 days | 11.8 | 14.2 | 3 µg/mL (≈ 8.94 µM) | 3 µg/mL (≈ 8.94 µM) | 3 µg/mL (≈ 8.94 µM) | 3 µg/mL (≈ 8.94 µM) | 3 µg/mL (≈ 8.94 µM) | 3 µg/mL (≈ 8.94 µM) | 3 µg/mL (≈ 8.94 µM) | 3 µg/mL (≈ 8.94 µM) | 3 µg/mL (≈ 8.94 µM) | 3 µg/mL (≈ 8.94 µM) | 3 µg/mL (≈ 8.94 µM) | 3 µg/mL (≈ 8.94 µM) | MIC [4, 17]: 3 µg/mL (≈ 8.94 µM); MIC [4, 18]: 3 µg/mL (≈ 8.94 µM); MIC [4, 19]: 3 µg/mL (≈ 8.94 µM); MIC [5]: 3 µg/mL (≈ 8.94 µM); MIC [6, 20]: 17.5 µg/mL (≈ 52.1 µM); MIC [6, 21]: 7.5 µg/mL (≈ 22.3 µM); MIC [6, 22]: 17.5 µg/mL (≈ 52.1 µM); MIC [6, 23]: 7.5 µg/mL (≈ 22.3 µM); MIC [6, 24]: 7.5 µg/mL (≈ 22.3 µM); MIC [7, 25]: 3 µg/mL (≈ 8.94 µM); MIC [7, 26]: 3 µg/mL (≈ 8.94 µM); MIC [8]: 3 µg/mL (≈ 8.94 µM); MIC [9]: 7.5 µg/mL (≈ 22.3 µM) |
| NCc1[nH]c2ccc(Cl)cc2c1-c1ccc(Cl)cc1Cl [E] | > 22 days | > 22 days | 12.6 | 34.2 | 6.6 days | 9.2 days | 11.6 | 15.2 | 3 µg/mL (≈ 9.21 µM) | 3 µg/mL (≈ 9.21 µM) | 3 µg/mL (≈ 9.21 µM) | 3 µg/mL (≈ 9.21 µM) | 0.8 µg/mL (≈ 2.46 µM) | 7.5 µg/mL (≈ 23 µM) | 3 µg/mL (≈ 9.21 µM) | 7.5 µg/mL (≈ 23 µM) | 3 µg/mL (≈ 9.21 µM) | 3 µg/mL (≈ 9.21 µM) | 3 µg/mL (≈ 9.21 µM) | 3 µg/mL (≈ 9.21 µM) | MIC [4, 17]: 3 µg/mL (≈ 9.21 µM); MIC [4, 18]: 3 µg/mL (≈ 9.21 µM); MIC [4, 19]: 3 µg/mL (≈ 9.21 µM); MIC [5]: 17.5 µg/mL (≈ 53.7 µM); MIC [6, 20]: 7.5 µg/mL (≈ 23 µM); MIC [6, 21]: 17.5 µg/mL (≈ 53.7 µM); MIC [6, 22]: 17.5 µg/mL (≈ 53.7 µM); MIC [6, 23]: 7.5 µg/mL (≈ 23 µM); MIC [6, 24]: 17.5 µg/mL (≈ 53.7 µM); MIC [7, 25]: 3 µg/mL (≈ 9.21 µM); MIC [7, 26]: 3 µg/mL (≈ 9.21 µM); MIC [8]: 3 µg/mL (≈ 9.21 µM); MIC [9]: 17.5 µg/mL (≈ 53.7 µM) |
